Experimental data taken from patent publication US7910588B2, “5-HT7 receptor antagonists” (Eli Lilly and Company, priority 2007, dated 2011).
Where “and” joins values, the source holds several entries; their conditions need not be identical. Equal entries are not always repeated.

Molecular target: T1, 5-HT7 receptor (Homo sapiens, UniProt P34969)
T1 construct: expressed in transfected cells
Assay: 5-HT7 receptor affinity: [3H]5-HT radioligand binding assay
Conditions: membranes of AV-12 cells, 1 nM [3H]5-HT
Method: Membranes for affinity and antagonist activity assays are prepared essentially as follows. AV-12 cells, stably expressing the 5-HT7 receptor, are grown as a monolayer in 5×T-150 flasks in DMEM/F12 (3:1) 5% FBS, 20 mM HEPES, […] geneticin, 50 mg/mL tobramycin. After growing to 90% confluence the media is removed and replaced with Hybritech media containing 2% horse serum, […] dextran sulfate, 1 mg/mL nucellin, 1 mg/mL human transferrin (partially iron saturated), 50 mg/mL tobramycin, 20 mM HEPES, […] geneticin, 0.04% pluronic F68. […]
To prepare membranes, the above pellets are resuspended in ice-cold Tris buffer (20 mM Tris HCl, pH 7.4 at 23° C., 5 mM EDTA) and homogenized with a Wheaton tissue grinder. […] Protein concentrations are determined by the method of Bradford. […]

T1 sequence (P34969 whole entry): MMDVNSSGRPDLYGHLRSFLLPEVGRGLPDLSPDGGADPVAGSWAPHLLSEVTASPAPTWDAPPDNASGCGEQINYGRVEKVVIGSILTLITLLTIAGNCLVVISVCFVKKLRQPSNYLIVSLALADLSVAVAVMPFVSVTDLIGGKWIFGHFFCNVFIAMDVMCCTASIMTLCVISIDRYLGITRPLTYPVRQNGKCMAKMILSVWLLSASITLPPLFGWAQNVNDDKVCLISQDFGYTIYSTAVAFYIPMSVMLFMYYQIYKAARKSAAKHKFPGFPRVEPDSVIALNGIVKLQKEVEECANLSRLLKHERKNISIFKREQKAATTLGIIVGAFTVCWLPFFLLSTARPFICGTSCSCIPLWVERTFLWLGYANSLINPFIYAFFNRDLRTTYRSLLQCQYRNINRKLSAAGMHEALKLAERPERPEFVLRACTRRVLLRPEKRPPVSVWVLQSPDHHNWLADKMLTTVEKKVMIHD

SMILES: CCn1ncc(CN2CCN(c3cccnc3N3CCC(O)CC3)CC2)c1C.Cl [Example 1, 3′-[4-(1-Ethyl-5-methyl-1H-pyrazol-4-ylmethyl)-piperazin-1-yl]-3,4,5,6-tetrahydro-2H-[1,2]bipyridinyl-4-ol hydrochloride]
- Ki: ~16.2 nM and 16.2 nM
